Assay results taken from patent publication US20240197927A1, “COMBINATION COMPRISING A NEUROTENSIN RECEPTOR BINDING COMPOUND, GEMCITABINE AND NAB-PACLITAXEL” (Fusion Pharmaceuticals Inc., priority 2021, published 2024).

Legend:
metastatic PDAC [1] = settings: patients with metastatic PDAC, first-line; p<0.001; cited from earlier work
metastatic PDAC [2] = settings: patients with metastatic PDAC; p<0.001; cited from earlier work
[3] = target: neurotensin receptor 2 (NTR2) (Homo sapiens, UniProt O95665); settings: unlike NTR1; cited from earlier work
[4] = test system: subcutaneous HT-29 tumors; assay: Efficacy study on mice bearing subcutaneous HT-29 tumors (tumor volume); format: in vivo
Method: The HT-29 cell line was established from the primary tumor of a patient with colon adenocarcinoma (Fogh J et al., J. Natl. Cancer Inst. 1977 Jul. 59(1): 221-26).
(§1) Tumor cells were grown as monolayer at 37° C. in a humidified atmosphere (5% CO2, 95% air). The culture medium was RPMI 1640 containing 2 mM L-glutamine supplemented with 10% fetal bovine serum. For experimental use, tumor cells were detached from the culture flask using accutase and neutralized by the addition of complete culture medium. The cells were counted, and viability exceeded 85% as assessed by 0.25% trypan blue exclusion assay. Two frozen pellets of HT29 tumor cells were prepared: one frozen cell pellet prepared during the in-vitro cell culture, and one frozen cell pellet prepared using the cell suspension used for tumor induction in mice.
Healthy female Swiss Nude mice (Crl:NU(Ico)-Foxn1nu), 7 weeks old at reception, were obtained from Charles River.
Tumors were induced by subcutaneous injection of 1×10^7 HT29 cells in 200 μL of RPMI 1640 medium containing matrigel (50:50, v:v, ref: 356237, BD Biosciences, France) into the right flank (in the axis of the heart) of 160 animals. HT29 tumor cell implantation was performed 24 hours after a whole-body irradiation with a gamma source (2 Gy (Nude mice), 60Co, BioMep, France). The day of tumor induction was considered as the day −11 (D-11). […]

[5] = Toxicity: weight loss of treated mice; format: in vivo; settings: AsPC-1 study mice; combination Groups 2E, 5E, 6E; Gemcitabine/Abraxane Group 3E; ^177Lu-IPN01087 Groups 4E, 7E
Method: ^177Lu-IPN01087 and the reference substances were administered by intravenous injection (IV) into the caudal vein via a catheter. The recommended pH formulation for IV administration is pH 4.5-8.0. […]

[6] = test system: subcutaneous AsPC1 tumors; assay: Efficacy study on mice bearing subcutaneous AsPC-1 tumors (tumor volume); format: in vivo
Method: The AsPC 1 cell line was isolated from a metastatic site (ascites) from a patient (Chen W H. et al., In Vitro. 1982 Jan; 18(1):24-34).
as §1, with “mice” for “mice.”
Healthy female Swiss Nude mice (Crl:NU(Ico)-Foxn1^nu), 6 weeks old at reception, were obtained from Charles River.
Tumors were induced by subcutaneous injection of 1×10^7 AsPC 1 cells in 200 μL of RPMI 1640 medium containing matrigel (50:50, v:v, ref: 356237, BD Biosciences, France) into the right flank (in the axis of the heart) of 150 animals. AsPC 1 tumor cell implantation was performed 72 hours after whole-body irradiation with a gamma source (2 Gy (Nude mice), 60Co, BioMep, France).
Animals were randomized by individual tumor volume when tumors reach a mean volume of 150-200 mm3. […]

[7] = in combination with gemcitabine and nab-paclitaxel chemotherapy regimen

Chain of neurotensin receptor 2 (NTR2) (O95665 whole entry, species assumed): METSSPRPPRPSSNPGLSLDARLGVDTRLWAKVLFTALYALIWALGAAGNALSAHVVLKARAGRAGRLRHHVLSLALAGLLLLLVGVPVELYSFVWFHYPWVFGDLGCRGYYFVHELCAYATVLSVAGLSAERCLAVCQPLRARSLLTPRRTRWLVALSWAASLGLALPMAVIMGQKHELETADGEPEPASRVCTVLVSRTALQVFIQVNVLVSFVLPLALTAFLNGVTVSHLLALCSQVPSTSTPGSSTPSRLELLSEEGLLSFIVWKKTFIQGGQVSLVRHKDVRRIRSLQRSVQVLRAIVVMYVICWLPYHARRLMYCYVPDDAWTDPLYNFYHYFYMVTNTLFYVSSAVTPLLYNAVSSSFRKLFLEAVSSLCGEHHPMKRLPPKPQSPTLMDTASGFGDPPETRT

## Nc1ccn([C@@H]2O[C@H](CO)[C@@H](O)C2(F)F)c(=O)n1 [gemcitabine]
Metastatic PDAC [1]
  overall response rate (ORR): 7%
  overall survival (OS): 6.7 months
  progression-free survival (PFS): 3.7 months
Metastatic PDAC [2]
  ORR: 9.4%
  median OS: 6.8 months
  median PFS: 3.3 months

## C[C@@H]1CN([C@H]2CC[C@](C#N)(c3ccc(F)cc3)CC2)CC[C@]1(C(=O)O)c1ccccc1 [levocabastine]
[3]
  affinity for NTR2: high affinity

## FOLFIRINOX
Metastatic PDAC [2]
  ORR: 31.6%
  median OS: 11.1 months
  median PFS: 6.4 months

## ^177Lu-zalsenertant tetraxetan [^177Lu-IPN01087]
[4]; [7]
  overall effect in the HT-29 colon cancer model compared to chemotherapy or radiotherapy regimens alone: improved tumor growth control
[4]; single treatments, FIG. 2: Group 3 (GEM-ABX), Group 4 (^177Lu-IPN01087 @17MBq), IV
  HT-29 tumor growth, effect as compared to the vehicles: inhibitory effect on tumor growth
[5]
  mean weight losses: −4% to −10%
[6]; [7]
  overall effect in the AsPC-1 pancreatic cancer model compared to chemotherapy or radiotherapy regimens alone: prolonged regression
[6]; treatment alone, FIG. 7: Group 3E (GEM-ABX), Group 4E (^177Lu-IPN01087 @19MBq), IV
  AsPC-1 tumor growth, effect compared to the vehicles: antitumor effect
